Experimental data as given in ChEMBL document CHEMBL5360656, “Structure-Based Design of Transport-Specific Multitargeted One-Carbon Metabolism Inhibitors in Cytosol and Mitochondria” (J Med Chem, 2023).
The source made the active and inactive calls. The rule behind the calls is not given here.

Assays:
KB = assay: Antitumor activity against human KB cells assessed as inhibition of cell growth measured upto 96 hrs in presence of adenosine by Cell titer blue assay; assay type: functional, cell-based
CHO = assay: cells; details: Cricetulus griseus, 96 h

Row | Structure (SMILES) | Activity (KB) | IC50 (CHO)
1 | Nc1nc2[nH]c(CCCc3ccc(C(=O)N[C@@H](CCC(=O)O)C(=O)O)s3)cc2c(=O)[nH]1 | inactive | –
2 | Nc1nc2[nH]cc(CCc3ccc(C(=O)N[C@@H](CCC(=O)O)C(=O)O)cc3)c2c(=O)[nH]1 [PEMETREXED] | – | 60 nM
